Experimental data taken from patent publication US20250136556A1, “NOVEL MODULATORS OF THE ARYL HYDROCARBON RECEPTOR AND METHODS OF USE THEREOF” (Allianthera (Suzhou) Biopharmaceutical Co., Ltd., priority 2021, published 2025).
pEC50, pIC50: −log10 of the molar value. Like-named read-outs stand apart in the source and are kept apart here.

Legend:
[1] = molecular target: T1, Human Aryl Hydrocarbon Receptor (AHR) (Homo sapiens, UniProt P35869); assay: AHR agonist reporter assay in human cell line (INDIGO luciferase reporter); format: cell-based; settings: reporter cells; for pEC50: 24 hours incubation; for AHR % activation to Tapinarof at 1 μM: 24 hours, value in brackets;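 as to all read-outs here: firefly luciferase luminescence read on a plate reader, values normalized against positive and negative controls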
T1 construct: purchased INDIGO Bioscience IB06001-32; host or cells: AHR Reporter Cell (proprietary kit cells)
T1 sequence (P35869 11-848): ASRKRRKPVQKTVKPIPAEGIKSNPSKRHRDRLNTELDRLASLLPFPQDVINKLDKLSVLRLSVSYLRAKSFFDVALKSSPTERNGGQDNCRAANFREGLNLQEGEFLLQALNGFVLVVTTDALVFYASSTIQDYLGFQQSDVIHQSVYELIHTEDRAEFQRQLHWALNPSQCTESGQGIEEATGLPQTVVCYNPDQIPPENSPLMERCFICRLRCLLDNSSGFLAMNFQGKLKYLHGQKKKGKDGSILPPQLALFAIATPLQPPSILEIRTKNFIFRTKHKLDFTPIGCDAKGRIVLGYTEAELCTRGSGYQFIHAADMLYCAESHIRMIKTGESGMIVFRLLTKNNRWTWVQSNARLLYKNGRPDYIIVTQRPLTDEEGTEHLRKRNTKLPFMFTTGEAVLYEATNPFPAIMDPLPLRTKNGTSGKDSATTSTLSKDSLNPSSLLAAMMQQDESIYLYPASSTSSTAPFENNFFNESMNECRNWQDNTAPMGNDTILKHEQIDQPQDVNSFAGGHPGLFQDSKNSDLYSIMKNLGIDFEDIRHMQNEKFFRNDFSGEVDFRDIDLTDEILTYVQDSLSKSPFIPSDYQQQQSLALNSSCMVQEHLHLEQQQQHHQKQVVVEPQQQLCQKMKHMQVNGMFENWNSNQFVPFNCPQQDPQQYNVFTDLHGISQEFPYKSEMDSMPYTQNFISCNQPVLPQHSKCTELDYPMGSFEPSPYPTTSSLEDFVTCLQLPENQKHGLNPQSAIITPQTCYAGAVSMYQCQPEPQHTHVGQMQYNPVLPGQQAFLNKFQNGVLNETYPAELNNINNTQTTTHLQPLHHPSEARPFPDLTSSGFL
Procedure: The AHR reporter assay was performed following the protocol of the Human Aryl Hydrocarbon Receptor (AHR) Reporter Assay System (INDIGO Bioscience, #IB06001-32). AHR Reporter Cell was thawed and pre-incubated in Cell Recovery Medium (CRM) for 6 hours. […] Following 24 hours incubation, the media was removed and Luciferase Detection Reagent (LDR) added. The firefly luciferase activity was quantified using a plate reader. Results were normalized by positive and negative controls.

[2] = tested on: IL-6 gene expression in human primary M1 macrophage cells; assay: AHR-regulated IL-6 inhibition in human primary M1 macrophage (qPCR); format: cell-based; settings: LPS/IFN-gamma/GM-CSF, 24 hours; for pIC50: read-out: M1 assay IL6 -IC50
Procedure: Human M1 macrophage was differentiated from PBMC. Briefly, at day 1, monocytes were isolated from human PBMC using EasySe Human Monocyte Enrichment Kit without CD16 Depletion (Stemcell, 19058). The isolated monocytes were seeded at 3×10^7 cells in 15 cm dish using 30 ml medium containing 50 ng/ml GM-CSF (R&D, 215-GM-050/CF). At day 5, 30 ml fresh medium containing 50 ng/ml GM-CSF was added. At day 8, 1.5×10^5 cells/well were re-seeded into 24 wells plate, and 500 ul medium containing 10 ng/ml LPS (Sigma, L7770), 20 ng/ml IFN-gamma (PeproTech, 300-02), 50 ng/ml GM-CSF and the test compounds was added. […] The IL-6 expression was inhibited with AHR agonists described in literature as the positive inhibition control, alternatively the un-stimulated cells were used as the negative inhibition control. […] The primers for human GAPDH (F: […]; R: […]) and human IL-6 (F: […]; R: […]) were used to analyze fold expression of IL-6 of GAPDH by quantitative PCR.

[3] = tested on: Human Nuclear Factor (erythroid-derived2)-like 2 (Nrf2); assay: Nrf2 transcription factor activity reporter assay in human cell line (INDIGO luciferase reporter); format: cell-based; settings: reporter cells; for pEC50: 24 hours incubation; for Nrf2 % activation to Tapinarof at 9 μM: 24 hours, value in brackets
Procedure: The Nrf2 reporter assay was performed following the protocol of the Human Nuclear Factor (erythroid-derived2)-like 2 (Nrf2) Reporter Assay System (INDIGO Bioscience, #IB10001). Nrf2 Reporter Cell was thawed and pre-incubated in Cell Recovery Medium (CRM) for 6 hours. The media was then removed and the cells were incubated with Compound Screening Medium (CSM) in the absence (negative control) or presence of increasing concentrations of test compounds (typical dilution: 128 pM, 640 pM, 3.2 nM, 16 nM, 80 nM, 400 nM, […] in duplicates) for 24 hours. For positive control, cells activated with CDDO or Nrf2 agonists described in literature. Following 24 hours incubation, the media was removed and Luciferase Detection Reagent (LDR) added. The firefly luciferase activity was quantified using a plate reader. Results were normalized by positive and negative controls.

[4] = tested on: AHR-regulated gene CYP1A1; assay: AHR-regulated CYP1A1 expression in human monocytic U937 cell line (qPCR); settings: U937 cells, 16 hours, CYP1A1 relative to GAPDH
Procedure: To evaluate the AHR agonist activity of the test compounds, quantitative PCR analysis was used to determine expression level of the AHR-regulated gene CYP1A1 in a human monocytic U937 cell line. U937 cells were seeded at a concentration of 5×10^5 cells/well in 200 μL of growth medium in 96-well cell culture microplates. CYP1A1 expression was induced with AHR agonists described in literature as a positive control or the test compounds for 16 hours. […] Unstimulated cells were used as the negative control. Taqman probes for human CYP1A1 (Hs01054797_g1) and human GAPDH (Hs02786624_g1) were used to analyze fold expression of CYP1A1 of GAPDH.

[5] = second line of cell, read-out: AHR abEC50
[6] = first line of cell, read-out: AHR reEC50
[7] = first line of cell, read-out: Nrf2 reEC50
[8] = second line of cell, read-out: Nrf2 EC50, second line of cell (head does not name it)

pEC50 [1, 5] | pEC50 [1, 6] | AHR % activation to Tapinarof at 1 μM [1] | pEC50 [3, 7] | pEC50 [3, 8] | CYP1A1 (% activation to Tapinarof at 1 μM) [4] | Structure (SMILES) | M1 assay IL6 -max % inhibition (% to no treatment) [2] | pIC50 [2] | Nrf2 % activation to Tapinarof at 9 μM [3]
7.76 |  |  |  | 7.70 |  | CC(C)c1c(O)cc(-c2nc3ccccc3[nH]2)cc1O [Compound 50] |  |  | 
6.24 | 5.79 | 62.6% | 6.60 | 6.30 | 78.9% | CC(C)c1ncc(-c2cc3ccccc3cn2)cc1O [Compound 97] |  |  | 67.2%
6.39 | 3.75 | 71.2% | 7.40 | 6.86 | 83.6% | CC(C)c1ncc(-c2ccc3ccccc3n2)cc1O [Compound 98] |  |  | 83.6%
< 7.00 |  |  |  | 7.00 |  | CC(C)c1ncc(-c2cnc3ccccc3c2)cc1O [Compound 99] |  |  | 
< 6.00 | 7.66 | 49.7% | 6.70 | 6.05 | 90.5% | CC(C)c1ncc(-c2nc3ccccc3o2)cc1O [Compound 100] |  |  | 62.3%
6.46 |  |  |  | < 6.40 |  | CC(C)Oc1cc(/C=C/c2ccccc2)cc(O)n1 [Compound 106, (E)-6-isopropoxy-4-styrylpyridin-2-ol] |  |  | 
< 7.00 |  |  |  | < 7.00 |  | COc1cc(/C=C/c2ccccc2)cc(OC)c1C(C)=O [Compound 107, 1-{2,6-dimethoxy-4-[(E)-2-phenylethenyl]phenyl} ethenone] |  |  | 
< 7.00 |  |  |  | < 7.00 |  | C=C(C)c1c(OC)cc(/C=C/c2ccccc2)cc1OC [Compound 110, 1,3-dimethoxy-5-[(E)-2-phenylethenyl]-2-(prop-1-en-2-yl)benzene] |  |  | 
7.41 |  |  |  | 7.24 |  | COc1cc(/C=C/c2ccccc2)cc(O)c1C(C)(C)O [Compound 111] |  |  | 
7.00 |  |  |  | 7.01 |  | CC(C)c1ncc(/C=C/c2ccccc2F)cc1O [Compound 112, 5-[(E)-2-(2-fluorophenyl)ethenyl]-2-isopropylpyridin-3-ol] | 77.90% | 8.80 | 
6.53 |  |  |  |  |  | CC(C)c1ncc(/C=C/c2cccc(F)c2)cc1O [Compound 113, (E)-5-(3-fluorostyryl)-2-isopropylpyridin-3-ol] | 67.80% | 6.92 | 
6.92 | 6.84 | 88.5% |  | 7.72 |  | CC(C)c1ncc(/C=C/c2ccc(F)cc2)cc1O [Compound 114, 5-[(E)-2-(4-fluorophenyl)ethenyl]-2-isopropylpyridin-3-ol] |  |  | 
 | 7.18 | 16.4% | 6.90 | 6.89 | 0.4% | CC(C)c1ncc(-c2ccc3ccccc3n2)cc1N [Compound 119, 2-isopropyl-5-(quinolin-2-yl)pyridin-3-amine] |  |  | 97.8%
< 7.00 |  |  |  | 6.92 |  | CC(C)c1ncc(-c2nc3ccccc3o2)cc1N [Compound 121, 5-(1,3-benzoxazol-2-yl)-2-isopropylpyridin-3-amine] |  |  | 
6.40 | 6.59 | 64.4% | 5.58 |  | 39.3% | COc1cc(-c2nc3ccccc3o2)cc(O)c1C(C)C [Compound 122, 5-(benzo[d]oxazol-2-yl)-2-isopropyl-3-methoxyphenol] |  |  | 25.7%
7.94 |  |  |  |  |  | CCCc1c(O)cc(/C=C/c2ccccc2)cc1F [Compound 125, 3-fluoro-5-[(E)-2-phenylethenyl]-2-propylphenol] | 91.70% | 8.87 | 
6.63 |  |  |  | < 6.40 |  | COc1cc(Oc2ccccc2)cc(O)c1C(C)C [Compound 133, 2-isopropyl-3-methoxy-5-phenoxyphenol] |  |  | 
7.41 |  |  |  |  |  | CC(C)c1c(O)cc(/C=C/c2ccccc2)cc1F [Compound 135] | 95.30% | 8.77 | 

More lines, now with the values behind:

Structure (SMILES) | pEC50 [1, 5] | pEC50 [1, 6] | AHR % activation to Tapinarof at 1 μM [1] | pEC50 [3, 7] | pEC50 [3, 8] | CYP1A1 (% activation to Tapinarof at 1 μM) [4] | M1 assay IL6 -max % inhibition (% to no treatment) [2] | pIC50 [2] | Nrf2 % activation to Tapinarof at 9 μM [3]
Cc1ccnc2cc(-c3cc(O)c(C(C)C)c(O)c3)ccc12 [Compound 22] | 8.67 |  |  |  |  |  | 77.20% | 10.30 | 
CC(C)c1c(O)cc(-c2cc(F)c3cnc(N)nc3c2)cc1O [Compound 39] | 8.45 |  |  |  |  |  | 89.60% | 9.70 | 
CC(C)c1c(O)cc(-c2cc3ccccc3cn2)cc1O [Compound 46] | 7.41 | 7.14 | 95.8% | 7.79 | 6.78 | 95.3% |  |  | 69.3%
CC(C)c1c(O)cc(-c2ccc3ccccc3n2)cc1O [Compound 47] | 8.38 |  |  |  | 6.28 |  |  |  | 
CC(C)c1c(O)cc(-c2cnc3ccccc3c2)cc1O [Compound 48] | 7.24 | 7.19 | 69.5% | 7.84 | 7.53 | 78.4% | 89.60% | 8.52 | 84.4%
CC(C)c1c(O)cc(-c2ccc3cnccc3c2F)cc1F [Compound 139] |  |  |  |  |  |  | 85.80% | 8.30 | 
CC(C)c1c(O)cc(-c2ccc3ncccc3c2F)cc1F [Compound 140] |  |  |  |  |  |  | 92.30% | 9.89 | 
CC(C)c1c(O)cc(-c2ccc3cc(F)ccc3n2)cc1F [Compound 143] |  |  |  |  |  |  | 91.80% | 8.57 | 
CC(C)c1c(O)cc(-c2cc(F)c3ncccc3c2)cc1F [Compound 145] |  |  |  |  |  |  | 94.10% | 8.72 | 
Cc1ccnc2cc(-c3cc(O)c(C(C)C)c(F)c3)ccc12 [Compound 147] |  |  |  |  |  |  | 91.60% | 10.52 | 
CC(C)c1c(O)cc(-c2cc(F)c3cnc(N)nc3c2)cc1F [Compound 149] |  |  |  |  |  |  | 91.10% | 9.30 | 
CCCc1c(O)cc(-c2cnc3c(F)c(F)ccc3c2)cc1F [Compound 155] |  |  |  |  |  |  | 89.10% | 8.46 | 
CCCc1c(O)cc(-c2ccc3c(C)ccnc3c2)cc1F [Compound 161] |  |  |  |  |  |  | 91.30% | 8.92 | 
CC(C)c1c(O)cc(/C=C/c2ccccc2)cc1O [Tapinarof, reference compound] |  |  | 100% | 7.12 to 7.26 |  | 100% |  |  | 
